Test results from ChEMBL document CHEMBL4602617, “Discovery and optimization of heteroaryl piperazines as potent and selective PI3Kδ inhibitors” (Bioorg Med Chem Lett, 2020).

Key:
[1] = biological target: Cyclin-dependent kinase 5/CDK5 activator 1 (Homo sapiens, UniProt Q00535); experiment: Inhibition of recombinant full length human GST/His-tagged CDK5/p25 expressed in baculovirus expression system using serine/threonine-12 peptide as substrate incubated for 60 mins in presence of ATP by Z'-LYTE assay
[2] = biological target: Platelet-derived growth factor receptor alpha (Homo sapiens, UniProt P16234, D842V); experiment: Inhibition of recombinant human GST-tagged PDGFRalpha D842V cytoplasmic domain expressed in baculovirus expression system using tyrosine-4 peptide as substrate incubated for 60 mins in presence of ATP by Z'-LYTE assay
[3] = biological target: Protein kinase C gamma type (Homo sapiens, UniProt P05129); experiment: Inhibition of recombinant full length human GST-tagged PRKCG expressed in insect expression system using serine/threonine-7 peptide as substrate incubated for 60 mins in presence of ATP by Z'-LYTE assay

Measured: IC50

Sequence of Platelet-derived growth factor receptor alpha (P16234 24-1089 D842V limits assumed): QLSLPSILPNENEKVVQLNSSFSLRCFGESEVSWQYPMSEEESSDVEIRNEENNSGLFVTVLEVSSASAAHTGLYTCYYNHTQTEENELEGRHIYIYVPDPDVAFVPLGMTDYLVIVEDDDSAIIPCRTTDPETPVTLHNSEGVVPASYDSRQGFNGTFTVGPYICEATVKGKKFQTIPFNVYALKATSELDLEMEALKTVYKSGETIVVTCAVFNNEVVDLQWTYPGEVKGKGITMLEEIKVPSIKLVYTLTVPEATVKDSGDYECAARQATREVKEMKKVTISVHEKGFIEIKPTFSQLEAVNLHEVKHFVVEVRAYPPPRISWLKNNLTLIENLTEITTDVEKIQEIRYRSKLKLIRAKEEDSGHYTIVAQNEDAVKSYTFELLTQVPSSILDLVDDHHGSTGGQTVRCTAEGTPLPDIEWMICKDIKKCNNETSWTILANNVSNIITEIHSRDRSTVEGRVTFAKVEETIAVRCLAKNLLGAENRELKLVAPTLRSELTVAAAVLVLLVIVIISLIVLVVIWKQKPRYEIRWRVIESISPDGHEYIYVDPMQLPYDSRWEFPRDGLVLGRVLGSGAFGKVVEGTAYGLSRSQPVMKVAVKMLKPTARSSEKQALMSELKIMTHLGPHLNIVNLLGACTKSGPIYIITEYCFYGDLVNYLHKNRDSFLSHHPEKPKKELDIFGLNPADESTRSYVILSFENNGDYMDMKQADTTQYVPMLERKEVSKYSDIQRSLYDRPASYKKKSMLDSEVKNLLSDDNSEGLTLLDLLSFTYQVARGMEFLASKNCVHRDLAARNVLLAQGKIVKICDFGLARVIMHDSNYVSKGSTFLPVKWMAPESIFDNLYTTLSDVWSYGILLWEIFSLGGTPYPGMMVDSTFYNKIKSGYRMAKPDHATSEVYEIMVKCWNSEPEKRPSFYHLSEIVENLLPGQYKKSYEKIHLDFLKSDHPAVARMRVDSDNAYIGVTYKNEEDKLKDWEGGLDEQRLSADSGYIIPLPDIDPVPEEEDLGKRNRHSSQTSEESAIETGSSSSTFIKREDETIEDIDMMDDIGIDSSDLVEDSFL
Sequence of Cyclin-dependent kinase 5/CDK5 activator 1 (Q00535 whole entry, the tested form may be a part): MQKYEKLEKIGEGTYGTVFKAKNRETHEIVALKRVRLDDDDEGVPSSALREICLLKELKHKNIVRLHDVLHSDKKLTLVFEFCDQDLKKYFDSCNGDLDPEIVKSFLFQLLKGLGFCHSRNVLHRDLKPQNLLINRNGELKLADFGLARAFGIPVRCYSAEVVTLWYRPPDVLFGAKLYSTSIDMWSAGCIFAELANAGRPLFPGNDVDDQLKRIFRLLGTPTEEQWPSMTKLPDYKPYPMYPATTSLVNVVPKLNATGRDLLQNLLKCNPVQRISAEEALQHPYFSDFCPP
Sequence of Cyclin-dependent kinase 5/CDK5 activator 1 (Q15078 whole entry, further chain, the tested form may be a part): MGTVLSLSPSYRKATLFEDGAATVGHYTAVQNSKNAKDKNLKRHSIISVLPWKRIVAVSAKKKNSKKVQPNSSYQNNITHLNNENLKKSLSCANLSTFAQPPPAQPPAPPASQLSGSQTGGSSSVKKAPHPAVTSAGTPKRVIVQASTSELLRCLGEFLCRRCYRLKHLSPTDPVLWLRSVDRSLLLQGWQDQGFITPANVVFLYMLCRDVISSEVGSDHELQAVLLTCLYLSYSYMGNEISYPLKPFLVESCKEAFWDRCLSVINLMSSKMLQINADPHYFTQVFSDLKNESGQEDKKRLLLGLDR

C[C@@H]1C[C@H]1C(=O)N1CCN(c2cnc(C#N)c(-c3cnn(C)c3)n2)C[C@H]1C
> 100 µM: all assays above
